Several values for one entry are separate records, joined by “and”; a condition that tells them apart may be missing. Identical values can stand only once.
Assays:
Pgp3 = Pgp3 (Campylobacter jejuni, UniProt Q0P921); assay: biochemical; set-up: species or system C. jejuni
Procedure: Because DABCYL/FITC is a typical FRET quencher–fluorophore pair, an increase in fluorescent signals can be directly detected when it is processed by Pgp3 (Tang et al., 2013). The kinetic parameters (kcat = 0.0209 ± 0.0006 s^−1 and KM = 6.6 ± 0.7 µM) for the substrate were obtained by fitting the data to the Michaelis-Menten equation (Supplementary Fig. 8a).
The enzymatic assay for Pgp3 activity was determined using a fluorescein isothiocyanate (FITC) and 4′-([4′-(Dimethylamino)phenyl]-azo)-benzoic acid (DABCYL) pair for FRET. […] The excitation and emission spectra were set at 495 nm and 525 nm, respectively. Pgp3 (0.1 μM) in 20 mM HEPES pH 7.5, 200 mM NaCl, and 0.4 μM of zinc was used in this assay. The reaction was initiated by adding 3 μL of 0.015–2 mM substrate (final 1.56–200 μM) in the total volume of 30 μL of the reaction mixture. Initial velocities were calculated using slopes of fluorescence signal intensity in 3 min after the initiation of the reaction. In order to elucidate the inhibition mechanism of BMK-S301, initial velocities with various concentrations of substrates were measured in the presence of 40 μM BMK-S301. […] The same method was used for the determination of the IC50 values for inhibitors. Inhibitors in each concentration were pre-incubated with 0.1 μM of Pgp3 for 1 h on ice, and initial velocities were determined for 0.1, 10, 50, 100, 200, 500, and 1000 μM of each inhibitor in reaction with 10 μM of substrate. The IC50 values were calculated using GraphPad Prism 7.

Pgp3 WT = Pgp3 WT (Campylobacter jejuni, UniProt Q0P921); assay: Isothermal-titration calorimetry (ITC) with Pgp3 WT; assay type: binding, C. jejuni
Procedure: (§1) The gene encoding the amino-acid sequence of Glu21–Gln273 of Pgp3 from C. jejuni (strain ATCC 33560) was cloned into the expression vector pET-21a (Novagen) producing the recombinant wild-type Pgp3 protein with the C-terminal His6-tag ([…]). The protein expression and purification were conducted according to previously described methods with exception. The HiTrap chelating HP (GE Healthcare) column was washed with the lysis buffer containing 60 mM imidazole and the protein was eluted with a linear gradient from 100 to 500 mM imidazole. The protein was further purified by gel filtration on a HiLoad 16/60 Superdex 200 prep-grade column (GE Healthcare), which was previously equilibrated with 20 mM Tris-HCl pH 8.0 and 200 mM NaCl. The fractions containing the Pgp3 protein were pooled and concentrated to 15 mg mL^−1 for crystallization. The variants of Pgp3 (S169A, R195A, H216A, and H247A) were generated by site-directed mutagenesis using primer sets in Supplementary Table 1 and were purified as described for the WT Pgp3.
(§2) Using a micro-syringe, 2.5 μL of each inhibitor (2.25 mM) was added at intervals of 200 s to the Pgp3 solution in the cell with gentle stirring (125 rpm). The same ITC condition was applied to evaluate the KD values of BMK-S101 for each Pgp3 variant. All data were fitted to the single-binding-site model. Fitted curves were generated using GraphPad Prism 7. Data are mean ± SEM from triplicate experiments and the ITC thermograms are representative of triplicate experiments.

C. jejuni ATCC 33560 WT = assay: Cell morphology change monitored by TEM; assay type: cell-based, Campylobacter jejuni; conditions: 37 °C, 24 h; for minimum concentration causing morphological changes (helical to curved-rod): KL-L9P used for improved permeability
From the text: Next, we investigated whether our inhibitors could transform C. jejuni from the helical- to curved-rod morphology on exposure to the inhibitors (Fig. 5). […] To investigate the effect of inhibitors on the morphology of C. jejuni cells, we exposed the cells to the inhibitors and checked whether the morphology could be altered.
Cell-morphology change of C. jejuni upon inhibitor treatment was monitored, as described previously with modifications. Briefly, overnight cultures of C. jejuni were harvested from MH agar plates and suspended in MH broth to approximately 1 × 10^6 colony-forming unit (CFU)/mL. A total of 500 μL of the diluted bacterial culture was added into each well of a 24-well plate with 5 μL of two-fold serial dilutions of inhibitor. For the control strain with no inhibitor, the same volume of dilution buffer (20 mM Tris-HCl pH 8.0 and 200 mM NaCl) was used. The plate was incubated under a micro-aerobic condition at 37 °C for 24 h in the static condition. After incubation, 10 μL of the bacterial cultures was placed on formvar/carbon-coated copper grids (200 mesh) and negatively stained with 2% uranyl acetate for 2 s.

Pgp3 R195A = molecular target: T1, Pgp3 R195A (Campylobacter jejuni, UniProt Q0P921, R195A); assay: ITC with Pgp3 R195A variant; assay type: binding, C. jejuni
T1 sequence (Q0P921 21-273 R195A): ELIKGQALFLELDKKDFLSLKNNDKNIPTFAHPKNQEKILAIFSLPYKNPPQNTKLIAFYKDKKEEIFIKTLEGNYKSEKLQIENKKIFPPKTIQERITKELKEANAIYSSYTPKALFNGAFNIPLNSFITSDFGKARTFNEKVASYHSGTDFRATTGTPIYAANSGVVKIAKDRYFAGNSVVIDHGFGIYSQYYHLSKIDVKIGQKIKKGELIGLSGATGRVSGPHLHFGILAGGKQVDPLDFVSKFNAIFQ
Procedure: (§3) To evaluate the contributions of the three residues (Ser169, Arg195, and His216) to binding of BMK-S101, they were substituted to Ala, and the effect of each mutation was evaluated using ITC (Fig. 2d and Supplementary Fig. 1).
as §1, with “Pgp3. […]” for “Pgp3.”

Pgp3 S169A = molecular target: T2, Pgp3 S169A (Campylobacter jejuni, UniProt Q0P921, S169A); assay: ITC with Pgp3 S169A variant; assay type: binding, C. jejuni
T2 sequence (Q0P921 21-273 S169A): T1 sequence (Q0P921 21-273 R195A)
Procedure: as §3
as §1, with “Pgp3. […]” for “Pgp3.”

Pgp3 H216A = molecular target: T3, Pgp3 H216A (Campylobacter jejuni, UniProt Q0P921, H216A); assay: ITC with Pgp3 H216A variant; assay type: binding, C. jejuni
T3 sequence (Q0P921 21-273 H216A): T1 sequence (Q0P921 21-273 R195A)
Procedure: as §3
as §1, with “Pgp3. […]” for “Pgp3.”

[1] = molecular target: Pgp3 H247A variant (peptidoglycan peptidase 3, Campylobacter jejuni, Glu21-Gln273) (C. jejuni (strain ATCC 33560)); assay: ITC
C. jejuni (ATCC 33560) = assay: Drug accumulation assay (LC-MS); conditions: for µM (concentration in LC-MS sample): single replicates (First, Second, Third), total volume 200 (r6-r19) or 100 (r23-r30); for µM (concentration in LC-MS sample) / nmol/1011 CFUs / Total nmol: source data Fig. 5b; for nmol/1011 CFUs / Total nmol: single replicates; for Total nmol: total volume 200 or 100
Procedure: The accumulation assay was adapted from two different methods[42],[43]. […] The culture was grown overnight at 42 °C under the micro-aerobic condition. The cells were harvested at 6000 g for 15 min and washed with 1 × PBS, followed by resuspension in pre-warmed 1 × PBS to ~10^10 CFU/mL. The cell suspension (1.2 mL) was dispensed into a 24-well plate. Each compound to be examined was added into each well (final concentration = 100 μM). […] After incubation with shaking at 37 °C for 20 min, OD600 of each sample was measured, and the cells were harvested at 6000 g for 10 min at 4 °C. The pellets were resuspended in 250 μL of water, followed by three cycles of Freeze-Thaw with a dry ice/ethanol bath and a 37 °C-heating block in order to extract the compounds from C. jejuni. The cells were pelleted at 13,000 g for 5 min at room temperature. The supernatants (220 μL) were transferred to new tubes. The pellets were resuspended in 100 μL of methanol with vigorous vortexing for 1 min, followed by pelleting as before. The supernatants (100 μL) were combined with the solutions previously collected. The residual cell debris were removed at 20,000 g for 15 min at room temperature. The supernatants (300 μL) were dried with Genevac™ miVac Centrifugal Concentrator at room temperature for 5 h. Finally, the samples were resuspended with appropriate solvents and analyzed by LC-MS.
The suspension was centrifuged and the supernatant was analyzed by LC-MS. LC-MS systems consists of a Bruker impact II ultra-high resolution Qq-time-of-flight mass spectrometer using Hystar 5.0 SR1 software with a Waters Acquity UPLC H-Class system equipped with a quaternary solvent manager, a sample manager-FTN, and a photodiode array detector. The Bruker electrospray ionization source was operated in the positive ion mode, except for BMK-S301 (in the negative ion mode). […] A four-step 10-min LC gradient was as follows: 3 min at 98:2; 3 min to 85:15; 0.1 min to 98:2; 3.9 min at 98:2 for BMK-S101, -S203, and -S301. The ratio of the mobile phases (A = 0.1% formic acid in water, B = 0.1% formic acid in ACN) is given as A:B in LC gradients. […] The quantification was done by integrating the peak areas from extracted-ion chromatograms of corresponding m/z values of each compound.

Pgp3 H247A variant = assay: ITC with inactive Pgp3 H247A variant; assay type: binding, C. jejuni; conditions: ITC at 298 K, Pgp3 H247A variant (used to prevent turnover of substrate)
Procedure: as §1
as §2, with “Data are mean ± SEM from triplicate experiments and the ITC thermograms are representative of triplicate experiments.” left out

[2] = substrate turnover by Pgp3, Michaelis-Menten fit

## FITC-L-Ala^1-D-Glu^2-mDAP^3-D-Ala^4-L-Lys^5-DABCYL [FRET substrate, reference compound]
Pgp3; [2]
  Km: 6.6 ± 0.7 µM
  kcat: 0.0209 ± 0.0006 s⁻¹

## CC(=O)N[C@@H](CCNCC(=O)O)C(=O)N[C@H](C)C(=O)NO [BMK-S202]
Pgp3 WT
  Kd: 6.6 ± 0.3 µM
C. jejuni ATCC 33560 WT
  minimum concentration causing morphological changes (helical to curved-rod): 25~50 μM

## CC(=O)N[C@@H](CCC[C@@H](NC(C)=O)C(=O)O)C(=O)N[C@H](C)C(=O)NO [BMK-S101]
Pgp3 R195A
  Kd: 17.8 ± 0.8 µM
Pgp3 WT
  Kd: 2.3 ± 0.8 µM
Pgp3 S169A
  Kd: 28.3 ± 5.8 µM
C. jejuni ATCC 33560 WT
  concentrations without any detectable changes in the cell shape: ≤ 156 µM
  minimum concentration causing morphological changes (helical to curved-rod): > 313 μM
Pgp3 H216A
  Kd: 10.4 ± 2.6 µM

## pentapeptide (Ac-L-Ala1-γ-D-Glu2-mDAP3-D-Ala4-D-Ala5), peptidoglycan stem peptide
[1]
  Kd: 6.8 µM

## NS(=O)(=O)c1ccc(CC(=O)NCC(=O)NO)cc1 [BMK-S302]
Pgp3 WT
  Kd: 9.9 ± 1.5 µM
Pgp3
  IC50: 244.6 ± 1.4 µM
C. jejuni ATCC 33560 WT
  minimum concentration causing morphological changes (helical to curved-rod): 100 μM

## CC(=O)N[C@@H](CCN(CC(=O)O)Cc1ccccc1)C(=O)N[C@H](C)C(=O)NO [BMK-S201]
Pgp3 WT
  Kd: 1.3 ± 0.1 µM
C. jejuni (ATCC 33560)
  µM (concentration in LC-MS sample): 0.024 µM and 0.040 µM and 0.056 µM
  nmol/1011 CFUs: 0.60 nmol/1011 CFUs and 0.97 nmol/1011 CFUs and 1.37 nmol/1011 CFUs
  Total nmol: 0.0048 nmol and 0.0079 nmol and 0.0112 nmol

## CC(=O)N[C@@H](CCN(CC(=O)O)CC1CCCC1)C(=O)N[C@H](C)C(=O)NO [BMK-S203]
Pgp3 WT
  Kd: 1.8 ± 0.4 µM
C. jejuni ATCC 33560 WT
  minimum concentration causing morphological changes (helical to curved-rod): 25~50 μM
C. jejuni (ATCC 33560); 100 μM compound, 37 °C, 20 min, LC-MS, mean
  intracellular concentration (accumulation): 0.3 ± 0.1 nmole/10^11 CFU
C. jejuni (ATCC 33560)
  µM (concentration in LC-MS sample): 0.0294 µM and 0.0222 µM and 0.0293 µM
  nmol/1011 CFUs: 0.333 nmol/1011 CFUs and 0.240 nmol/1011 CFUs and 0.327 nmol/1011 CFUs
  Total nmol: 0.00294 nmol and 0.00222 nmol and 0.00293 nmol

## Ac-L-Ala^1-γ-D-Glu^2-mDAP^3-D-Ala^4−D-Ala^5 [pentapeptide]
Pgp3 H247A variant
  Kd: 6.8 ± 0.3 µM

## NS(=O)(=O)c1ccc(-c2ccc(CC(=O)NO)cc2)cc1 [BMK-S303]
Pgp3 WT
  Kd: 1.4 ± 0.4 µM
Pgp3
  IC50: 22.3 ± 1.5 µM
C. jejuni ATCC 33560 WT
  minimum concentration causing morphological changes (helical to curved-rod): 400 μM

Source: publication PMC9050674, “Structure-based inhibitor design for reshaping bacterial morphology” (Communications Biology, 2022)
